Tests used:
[1] = molecular target: T1, human P-type α-amylase (Homo sapiens, UniProt P04746); experiment: Km and reaction rate constant kp of the substrate for measuring α-amylase activity, P-type; format: biochemical
T1 construct: purchased International Reagents Corp., Japan CARIBZYME AMY
T1 sequence (P04746 16-511): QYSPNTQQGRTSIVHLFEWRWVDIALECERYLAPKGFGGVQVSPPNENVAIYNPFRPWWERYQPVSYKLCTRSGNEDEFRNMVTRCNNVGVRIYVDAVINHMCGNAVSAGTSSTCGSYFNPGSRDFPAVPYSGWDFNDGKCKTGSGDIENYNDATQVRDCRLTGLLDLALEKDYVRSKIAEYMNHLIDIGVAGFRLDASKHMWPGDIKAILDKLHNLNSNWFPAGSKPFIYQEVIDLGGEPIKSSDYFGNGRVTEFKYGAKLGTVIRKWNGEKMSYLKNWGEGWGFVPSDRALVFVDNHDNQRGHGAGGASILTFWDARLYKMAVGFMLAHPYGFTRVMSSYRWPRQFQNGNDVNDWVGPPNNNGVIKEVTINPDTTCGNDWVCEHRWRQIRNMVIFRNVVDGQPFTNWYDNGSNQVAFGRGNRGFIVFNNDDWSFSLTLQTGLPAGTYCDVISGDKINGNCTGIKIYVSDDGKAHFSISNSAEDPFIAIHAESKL
Method: (§1) In a 50 mM phosphate buffer (pH 7.0) containing 40 mM NaCl and 2 mM MgCl2 was dissolved N3G5-CNP obtained in Informative Example 1 to prepare substrate solutions for measuring α-amylase activity in a concentration of 0.16, 0.32, 0.48, 0.64, 0.80 and 0.96 mM.
(§2) A commercially available glucoamylase derived from Rhizopus sp. and β-glucosidase derived from almond were mixed and dissolved in a 50 mM phosphate buffer (pH 7.0) containing 40 mM NaCl and 2 mM MgCl2 to the concentration of the glucoamylase and β-glucosidase being 163 units/ml and 16.3 units/ml, respectively. In this connection, these commercially available glucoamylase and β-glucosidase used were manufactured by Toyobo Co., Ltd.
(§3) Each of commercially available human P-type α-amylase and human S-type α-amylase was dissolved in distilled water to ensure that the concentration of each amylase was about 150 IU/liter.
The commercially available human α-amylases used were CARIBZYME AMY manufactured by International Reagents Corp., Japan. […]
(§4) As for the human P-type α-amylase solution and human S-type α-amylase solution, 1.0 ml of a coupled enzyme solution was added to and stirred with 250 μl of the α-amylase solution, warmed to 37° C. for 1 minute, and 2.0 ml of each concentration of the N3G5-CNP solution was added and stirred, warmed to 37° C. for 2.5 minutes to measure the variable absorbances at 400 nm for 2 minutes. […]

[2] = molecular target: T2, human S-type α-amylase (Homo sapiens, UniProt P0DUB6); experiment: Km and reaction rate constant ks of the substrate for measuring α-amylase activity, S-type; format: biochemical
T2 construct: purchased International Reagents Corp., Japan CARIBZYME AMY
T2 sequence (P0DUB6 16-511): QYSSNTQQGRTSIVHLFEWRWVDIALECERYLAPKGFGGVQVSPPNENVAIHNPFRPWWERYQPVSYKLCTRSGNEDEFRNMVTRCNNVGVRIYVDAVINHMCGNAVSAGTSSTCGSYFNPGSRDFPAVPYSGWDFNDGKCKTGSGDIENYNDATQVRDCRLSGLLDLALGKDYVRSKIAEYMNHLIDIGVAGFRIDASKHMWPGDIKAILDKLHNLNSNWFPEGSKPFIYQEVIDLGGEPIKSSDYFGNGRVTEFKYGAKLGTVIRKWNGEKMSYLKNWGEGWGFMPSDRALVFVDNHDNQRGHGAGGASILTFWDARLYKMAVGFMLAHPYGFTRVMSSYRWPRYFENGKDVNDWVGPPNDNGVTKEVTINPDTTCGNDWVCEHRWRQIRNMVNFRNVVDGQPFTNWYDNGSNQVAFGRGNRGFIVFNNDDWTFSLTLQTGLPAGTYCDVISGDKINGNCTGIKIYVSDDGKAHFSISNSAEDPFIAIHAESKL
Method: as §1, §2, §3
The commercially available human α-amylases used were CARIBZYME AMY manufactured by International Reagents Corp., Japan.
The molecular extinction coefficient (ε) of 2-chloro-4-nitrophenol is defined 16,100 and for α-amylase activity the amount of enzyme which decomposes 1 μmol of G5-CNP at 37° C. for a minute is defined as 1 International Unit (IU) (and so forth).
as §4
For six solutions of each of the human P-type α-amylase and the human S-type α-amylase, 1.0 ml of the coupled enzyme solution was added to and stirred with 250 μl of the α-amylase solution and warmed to 37° C. for 1 minute, respectively. 2.0 ml of N3G5-CNP solution was added and stirred, and the mixture was warmed to 37° C. for 2.5 minutes to measure the variable absorbances at 400 nm for 2 minutes. […]

[3] = system: α-amylase; experiment: Km value of G5-CNP (isoenzyme not stated); format: biochemical, human; conditions: α-glucosidase instead of glucoamylase as coupled enzyme
Method: As for the human P-type α-amylase solution and human S-type α-amylase solution, 1.0 ml of a coupled enzyme solution was added to and stirred with 250 μl of the α-amylase solution, warmed to 37° C. for 1 minute, and 2.0 ml of each concentration of the N3G5-CNP solution was added and stirred, warmed to 37° C. for 2.5 minutes to measure the variable absorbances at 400 nm for 2 minutes. At the same time, a blank test was carried out with 250 μl of distilled water instead of the α-amylase solution. The measurements thus obtained were plotted by the Lineweaver-Burk method to calculate the Km value by the method of least squares.
The Km value and the reaction rate constants (kp and ks) of G5-CNP and the inhibition constants a and b of DOG3 were measured in the same manner as in Example 1 except that a commercially available G5-CNP [manufactured by Daiichi Pure Chemicals Co., Ltd.] on behalf of N3G5-CNP as the substrate for measuring α-amylase was used and 406 units/liter of α-glucosidase [manufactured by Toyobo Co., Ltd.] was used on behalf of glucoamylase as a coupled enzyme.

[4] = molecular target: T1, human P-type α-amylase; experiment: Inhibition of human P-type α-amylase by an inhibitor (variable absorbance at 400 nm, chromogenic substrate, coupled enzymes); format: biochemical
Method: (§5) (a) Preparation of a mixed solution of the substrate (N3G5-CNP) and the inhibitor DOG3
(§6) N3G5-CNP and DOG3 obtained in Informative Example 2 were dissolved in a 50 mM phosphate buffer (pH 7.0) containing 40 mM NaCl and 2 mM MgCl2 so that the N3G5-CNP has a concentration of 3.25 mM (final concentration of 2.0 mM) and DOG3 has seven concentrations of 0.05, 0.11, 0.54, 1.09, 2.16, 3.25, 5.41 mM (final concentrations of 0.03, 0.07, 0.33, 0.67, 1.33, 2.00 and 3.33 mM, respectively).
(§7) The commercially available human P-type α-amylase and human S-type α-amylase were dissolved in distilled water so that they have a concentration of about 150 IU/liter.
(§8) It was prepared in the same manner as described in (b) in the section (1).
(§9) After 250 μl of the α-amylase solution was admixed with 1.0 ml of the coupled enzyme solution and warmed to 37° C. for 1 minute, 2.0 ml of each of the mixtures (having 7 concentration) of the substrate (N3G5-CNP) and the inhibitor DOG3 was added, stirred and warmed to 37° C. for 2.5 minutes, and the variable absorbance in each sample at 400 nm was measured for 2 minutes.
(§10) The activities of human P-type α-amylase and human S-type α-amylase containing 0 mM of DOG3 (without DOG3) were regarded as 100% and the relative activities of human P-type α-amylase and human S-type α-amylase in different concentrations of DOG3 were obtained from each determined value as mentioned above. In this connection, a open circle means P-type α-amylase and a closed circle means S-type α-amylase. […]
(§11) On the other hand, procedures were carried out in the same manner as described above except that 1.0 ml of the coupled enzyme solution alone was used on behalf of the mixed solution in (c) to obtain the value of T with this method.
(§12) The values of kp, ks, a and b in the wheat-germ inhibitor method were 1.1×10^-3, 1.1×10^-3, 0,262 and 0.726 as a result of the measurement. These values as well as those of T and W obtained in this method were substituted for the equations (3) and (4) to obtain the values of P and S (IU/liter). […]

[5] = molecular target: T2, human S-type α-amylase; experiment: Inhibition of human S-type α-amylase by an inhibitor (variable absorbance at 400 nm, chromogenic substrate, coupled enzymes); format: biochemical
Method: as §5, §6, §7, §8, §9, §10, §11, §12

[6] = substrate final concentration 2.0 mM, 37° C., inclination of absorbance versus activity line, glucoamylase and β-glucosidase
[7] = α-glucosidase instead of glucoamylase as coupled enzyme

For [N-]=[N+]=NC[C@H]1O[C@H](O[C@H]2[C@H](O)[C@@H](O)[C@@H](O[C@H]3[C@H](O)[C@@H](O)[C@@H](O[C@H]4[C@H](O)[C@@H](O)[C@@H](O[C@H]5[C@H](O)[C@@H](O)[C@H](Oc6ccc([N+](=O)[O-])cc6Cl)O[C@@H]5CO)O[C@@H]4CO)O[C@@H]3CO)O[C@@H]2CO)[C@H](O)[C@@H](O)[C@@H]1O [N3G5-CNP, 2-chloro-4-nitro-phenyl 6^5-azido-6^5-deoxy-β-D-maltopentaoside], the “reaction rate constant kp” value [1, 6] was 1.1×10^-3, the Km ([2]; Lineweaver-Burk, 37° C., pH 7.0, glucoamylase and β-glucosidase as coupled enzymes) was 270 µM and the “reaction rate constant ks” value [2, 6] was 1.1×10^-3.

O=[N+]([O-])c1ccc(O[C@@H]2O[C@H](CO)[C@@H](O[C@H]3O[C@H](CO)[C@@H](O[C@H]4O[C@H](CO)[C@@H](O[C@H]5O[C@H](CO)[C@@H](O[C@H]6O[C@H](CO)[C@@H](O)[C@H](O)[C@H]6O)[C@H](O)[C@H]5O)[C@H](O)[C@H]4O)[C@H](O)[C@H]3O)[C@H](O)[C@H]2O)c(Cl)c1 [G5-CNP, 2-chloro-4-nitrophenyl β-D-maltopentaoside, reference compound] was tested, and the “reaction rate constant kp” value [1, 7] was 1.2×10^-3, the “reaction rate constant ks” value [2, 7] was 1.2×10^-3 and the Km [3] was 450 µM.

For C[C@H]1O[C@H](O[C@H]2[C@H](O)[C@@H](O)[C@@H](O[C@H]3[C@H](O)[C@@H](O)C(O)O[C@@H]3CO)O[C@@H]2CO)[C@H](O)[C@@H](O)[C@@H]1O (stereo partly drawn) [DOG3, O-6-deoxy-α-D-glucopyranosyl-(1→4)-O-α-D-glucopyranosyl-(1→4)-D-glucose], the activity at 330 µM ([4]; DOG3 0.33 mM final, substrate N3G5-CNP 2.0 mM final, 37° C., pH 7.0, read-out: relative activity of human P-type α-amylase (without DOG3 = 100%)) was 13.1%, the “difference of the relative activities of P-type and S-type α-amylases (maximum)” value ([4]; DOG3 0.33 mM, substrate N3G5-CNP, S-type minus P-type, as fraction) was 0.548 and the inhibition at 500 µM ([4]; DOG3 0.50 mM, substrate G5-CNP, α-glucosidase and β-glucosidase as coupled enzymes, read-out: inhibition constant a (to P-type α-amylase)) was 61.7%. For the same molecule, the inhibition at 330 µM ([4]; pH 7, DOG3 0.33 mM, substrate N3G5-CNP 2.0 mM, read-out: inhibition constant a (to P-type α-amylase) = 1 - relative activity) was 86.9%, the activity at 330 µM ([5]; DOG3 0.33 mM final, substrate N3G5-CNP 2.0 mM final, 37° C., pH 7.0, read-out: relative activity of human S-type α-amylase (without DOG3 = 100%)) was 67.9% and the inhibition at 500 µM ([5]; DOG3 0.50 mM, substrate G5-CNP, α-glucosidase and β-glucosidase as coupled enzymes, read-out: inhibition constant b (to S-type α-amylase)) was 14.1%. It also gave an inhibition at 330 µM ([5]; pH 7, DOG3 0.33 mM, substrate N3G5-CNP 2.0 mM, read-out: inhibition constant b (to S-type α-amylase) = 1 - relative activity) of 32.1%.

Reference: patent US5494804A, “Differential determination process of α-amylase isoenzyme activities” (Kikkoman Corporation, priority 1993, dated 1996)
